Laboratory results: patent US7419969B2 (Bristol-Myers Squibb Company, priority 2004, dated 2008)

Target: T1, HIV-integrase (Human immunodeficiency virus type 1 group M subtype B, UniProt P04585)
T1 construct: Recombinant integrase (0.26 ng) was incubated with the beads
Test: in-vitro activity against HIV-integrase (HIV Integrase Inhibition, SPA bead assay)
Type: biochemical
Settings: recombinant integrase, activity class
Experimental: To evaluate in-vitro activity against HIV-integrase, 5 pmole of biotin labeled substrate DNA was bound to 100 μg of Streptavidin coated PVT SPA beads (Amersham Pharmacia Biotech). Recombinant integrase (0.26 ng) was incubated with the beads for 90 min at 37° C. Unbound enzyme was removed by washing the complex followed by addition of inhibitors and […] of P33 labeled target DNA. The reaction was stopped by adding EDTA to a final concentration of 10 mM. Samples were counted in TopCountNXT (Packard) and the CPM was used as a measure of integration. The reaction condition was as described in Engelman, A. and Craigie, R. J. Vitrol. 1996, 69, 5908. The sequences of substrate and target DNA were described in Nucleic Acid Research 1994, 22, 1121.

SMILES	IC50 (Table 1a)	IC50 (Table 1)
Cc1nc(C)n(-c2cc(F)ccc2CNC(=O)c2nc3n(c(=O)c2O)CCCOC32CCC2)n1 [Example 128, Spiro[cyclobutane-1,10′(4′H)-[6H]pyrimido[2,1-c][1,4]oxazepine]-2′-carboxamide, N-[[2-(3,5-dimethyl-1H-1,2,4-triazol-1-yl)-4-fluorophenyl]methyl]-7′,8′-dihydro-3′-hydroxy-4′-oxo-]	10 to 100 nM	
O=C(NCc1cccc(F)c1-n1cncn1)c1nc2n(c(=O)c1O)CCCC21CCCC1 [Example 12, N-[[3-fluoro-2-(1H-1,2,4-triazol-1-yl)phenyl]methyl]-7′,8′-dihydro-3′-hydroxy-4′-oxo-spiro[cyclopentane-1,9′(6′H)-[4H]pyrido[1,2-α]pyrimidine]-2′-carboxamide]		1 to 10 nM
Cc1nnn(-c2cc(F)ccc2CNC(=O)c2nc3n(c(=O)c2O)CCOC32CCC2)c1C [Example 102, Spiro[cyclobutane-1,9′(4′H)-pyrimido[2,1-c][1,4]oxazine]-2′-carboxamide, N-[[2-(4,5-dimethyl-1H-1,2,3-triazol-1-yl)-4-fluorophenyl]methyl]-6′,7′-dihydro-3′-hydroxy-4′-oxo-]	10 to 100 nM	
O=C(NCc1ccc(F)cc1)c1nc2n(c(=O)c1O)CCNC21CCC1 [Example 132, Spiro[cyclobutane-1,9′(6′H)-[4H]pyrazino[1,2-a]pyrimidine]-2′-carboxamide, N-[(4-fluorophenyl)methyl]-7′,8′-dihydro-3′-hydroxy-4′-oxo-]	1 to 10 nM	
CS(=O)(=O)c1cc(F)ccc1CNC(=O)c1nc2n(c(=O)c1O)CCC21CCCC1 [Example 85, N-[[4-fluoro-2-(methylsulfonyl)phenyl]methyl]-6′,7′-dihydro-3′-hydroxy-4′-oxo-spiro[cyclopentane-1,8′(4′H)-pyrrolo[1,2-α]pyrimidine]-2′-carboxamide]		1 to 10 nM
CN1CCn2c(nc(C(=O)NCc3ccc(F)cc3-n3cncn3)c(O)c2=O)C12CCCCC2 [Example 96, Spiro[cyclohexane-1,9′(6′H)-[4H]pyrazino[1,2-a]pyrimidine]-2′-carboxamide, N-[[4-fluoro-2-(1H-1,2,4-triazol-1-yl)phenyl]methyl]-7′,8′-dihydro-3′-hydroxy-8′-methyl-4′-oxo-]	1 to 10 nM	
Cc1nnn(-c2cc(F)ccc2CNC(=O)c2nc3n(c(=O)c2O)CCCOC32CCC2)c1C [Example 107, Spiro[cyclobutane-1,10′(4′H)-[6H]pyrimido[2,1-c][1,4]oxazepine]-2′-carboxamide, N-[[2-(4,5-dimethyl-1H-1,2,3-triazol-1-yl)-4-fluorophenyl]methyl]-7′,8′-dihydro-3′-hydroxy-4′-oxo-]	10 to 100 nM	
Cc1ccc(CNC(=O)c2nc3n(c(=O)c2O)CCCC32CCC2)cc1 [Example 63, N-[(4-methylphenyl)methyl]-7′,8′-dihydro-3′-hydroxy-4′-oxo-spiro[cyclobutane-1,9′(6′H)-[4H]pyrido[1,2-α]pyrimidine]-2′-carboxamide]		10 to 100 nM
O=C(NCc1ccc(F)cc1)c1nc2n(c(=O)c1O)CCCC21CCCC1 [Example 1, N-[(4-fluorophenyl)methyl]-7′,8′-dihydro-3′-hydroxy-4′-oxo-spiro[cyclopentane-1,9′(6′H)-[4H]pyrido[1,2-a]pyrimidine]-2′-carboxamide]		1 to 10 nM
CN(C)S(=O)(=O)c1cc(F)ccc1CNC(=O)c1nc2n(c(=O)c1O)CCOC21CCOCC1 [Example 47, N-[[2-[(dimethylamino)sulfonyl]-4-fluorophenyl]methyl]-2,3,5,6,6′,7′-hexahydro-3′-hydroxy-4′-oxo-spiro[4H-pyran-4,9′(4′H)-pyrimido[2,1-c][1,4]oxazine]-2′-carboxamide]		10 to 100 nM
O=C(NCc1ccccc1N1CCCCS1(=O)=O)c1nc2n(c(=O)c1O)CCCC21CCCC1 [Example 8, N-[[2-(tetrahydro-1,1-dioxido-2H-1,2-thiazin-2-yl)phenyl]methyl]-7′,8′-dihydro-3′-hydroxy-4′-oxo-spiro[cyclopentane-1,9′(6′H)-[4H]pyrido[1,2-α]pyrimidine]-2′-carboxamide]		10 to 100 nM
Cc1ncn(-c2cc(F)ccc2CNC(=O)c2nc3n(c(=O)c2O)CCOC32COC2)n1 [Example 108, Spiro[oxetane-3,9′(4′H)-pyrimido[2,1-c][1,4]oxazine]-2′-carboxamide, N-[[4-fluoro-2-(3-methyl-1H-1,2,4-triazol-1-yl)phenyl]methyl]-6′,7′-dihydro-3′-hydroxy-4′-oxo-]	1 to 10 nM	
O=C(NCc1ccc(F)cc1)c1nc2n(c(=O)c1O)CCOC21CCOC1 (stereo not shown) [Example 36, N-[(4-fluorophenyl)methyl]-4,5,6′,7′-tetrahydro-3′-hydroxy-4′-oxo-spiro[furan-3(2H),9′(4′H)-pyrimido[2,1-c][1,4]oxazine]-2′-carboxamide]		1 to 10 nM
CN1CCn2c(nc(C(=O)NCc3ccc(F)cc3)c(O)c2=O)C12CCCC2 [Example 92, Spiro[cyclopentane-1,9′(6′H)-[4H]pyrazino[1,2-a]pyrimidine]-2′-carboxamide, N-[(4-fluorophenyl)methyl]-7′,8′-dihydro-3′-hydroxy-8′-methyl-4′-oxo-]	1 to 10 nM	
O=C(NCc1ccccc1F)c1nc2n(c(=O)c1O)CCOC21CCCC1 [Example 24, N-[(2-fluorophenyl)methyl]-6′,7′-dihydro-3′-hydroxy-4′-oxo-spiro[cyclopentane-1,9′(4′H)-pyrimido[2,1-c][1,4]oxazine]-2′-carboxamide]		10 to 100 nM
Cc1cc(CNC(=O)c2nc3n(c(=O)c2O)CCCC32CCC2)ccc1F [Example 72, N-[(4-fluoro-3-methylphenyl)methyl]-7′,8′-dihydro-3′-hydroxy-4′-oxo-spiro[cyclobutane-1,9′(6′H)-[4H]pyrido[1,2-α]pyrimidine]-2′-carboxamide]		1 to 10 nM
Cc1ccc(CNC(=O)c2nc3n(c(=O)c2O)CCCC32CCC2)cc1F [Example 73, N-[(3-fluoro-4-methylphenyl)methyl]-7′,8′-dihydro-3′-hydroxy-4′-oxo-spiro[cyclobutane-1,9′(6′H)-[4H]pyrido[1,2-α]pyrimidine]-2′-carboxamide]		1 to 10 nM
O=C(NCc1ccc(F)cc1-n1cncn1)c1nc2n(c(=O)c1O)CCCC21CCCC1 [Example 4, N-[[4-fluoro-2-(1H-1,2,4-triazol-1-yl)phenyl]methyl]-7′,8′-dihydro-3′-hydroxy-4′-oxo-spiro[cyclopentane-1,9′(6′H)-[4H]pyrido[1,2-α]pyrimidine]-2′-carboxamide]		1 to 10 nM
CN(C)S(=O)(=O)c1cc(F)ccc1CNC(=O)c1nc2n(c(=O)c1O)CCCOC21CCC1 [Example 61]		10 to 100 nM
Cc1ccc(CNC(=O)c2nc3n(c(=O)c2O)CCOC32CCCC2)cc1F [Example 27, N-[(3-fluoro-4-methylphenyl)methyl]-6′,7′-dihydro-3′-hydroxy-4′-oxo-spiro[cyclopentane-1,9′(4′H)-pyrimido[2,1-c][1,4]oxazine]-2′-carboxamide]		1 to 10 nM
O=C(NCc1ccccc1)c1nc2n(c(=O)c1O)CCOC21CCCC1 [Example 14, N-(phenylmethyl)-6′,7′-dihydro-3′-hydroxy-4′-oxo-spiro[cyclopentane-1,9′(4′H)-pyrimido[2,1-c][1,4]oxazine]-2′-carboxamide]		1 to 10 nM
O=C(NCc1cc(Cl)ccc1Cl)c1nc2n(c(=O)c1O)CCCC21CCC1 [Example 76, N-[(2,5-dichlorophenyl)methyl]-7′,8′-dihydro-3′-hydroxy-4′-oxo-spiro[cyclobutane-1,9′(6′H)-[4H]pyrido[1,2-α]pyrimidine]-2′-carboxamide]		1 to 10 nM
CC(NC(=O)c1nc2n(c(=O)c1O)CCCC21CCC1)c1ccc(F)cc1 (stereo not drawn) [Example 74, N-[1-(4-fluorophenyl)ethyl]-7′,8′-dihydro-3′-hydroxy-4′-oxo-spiro[cyclobutane-1,9′(6′H)-[4H]pyrido[1,2-α]pyrimidine]-2′-carboxamide]		10 to 100 nM
COc1ccc(CNC(=O)c2nc3n(c(=O)c2O)CCCC32CCC2)cc1 [Example 64, N-[(4-methoxyphenyl)methyl]-7′,8′-dihydro-3′-hydroxy-4′-oxo-spiro[cyclobutane-1,9′(6H)^1-[4H]pyrido[1,2-α]pyrimidine]-2′-carboxamide]		10 to 100 nM
Cc1ncnn1-c1cc(F)ccc1CNC(=O)c1nc2n(c(=O)c1O)CCN(C)C21CCCCC1 [Example 97, Spiro[cyclohexane-1,9′(6′H)-[4H]pyrazino[1,2-a]pyrimidine]-2′-carboxamide, N-[[4-fluoro-2-(5-methyl-1H-1,2,4-triazol-1-yl)phenyl]methyl]-7′,8′-dihydro-3′-hydroxy-8′-methyl-4′-oxo-]	10 to 100 nM	
Cc1ncn(-c2cc(F)ccc2CNC(=O)c2nc3n(c(=O)c2O)CCOC32CCCC2)n1 [Example 129, Spiro[cyclopentane-1,9′(4′H)-pyrimido[2,1-c][1,4]oxazine]-2′-carboxamide, N-[[4-fluoro-2-(3-methyl-1H-1,2,4-triazol-1-yl)phenyl]methyl]-6′,7′-dihydro-3′-hydroxy-4′-oxo-]	1 to 10 nM	
Cc1ncn(-c2cc(F)ccc2CNC(=O)c2nc3n(c(=O)c2O)CCOC32CCC2)n1 [Example 124, Spiro[cyclobutane-1,9′(4′H)-pyrimido[2,1-c][1,4]oxazine]-2′-carboxamide, N-[[4-fluoro-2-(3-methyl-1H-1,2,4-triazol-1-yl)phenyl]methyl]-6′,7′-dihydro-3′-hydroxy-4′-oxo-]	1 to 10 nM	
COc1ccc(CNC(=O)c2nc3n(c(=O)c2O)CCOC32CCOCC2)c(OC)c1 [Example 46, N-[(2,4-dimethoxyphenyl)methyl]-2,3,5,6,6′,7′-hexahydro-3′-hydroxy-4′-oxo-spiro[4H-pyran-4,9′(4′H)-pyrimido[2,1-c][1,4]oxazine]-2′-carboxamide]		10 to 100 nM
